# In patent US20180117249A1, “Warburg Effect Targeted Chemotherapy Apparatus” (Cure Cancer Worldwide LLC, priority 2010, published 2018):
# How the values were obtained:
# [1] = cited from earlier work
# breast cancer = conditions: diabetic women taking metformin; diabetic control 8%, non-diabetic control 16%; cited from earlier work
# [2] = tested on: breast cancer cells in culture; conditions: methotrexate with insulin vs methotrexate alone; cited from earlier work
# [3] = Insulin-induced hypoglycemia safety profile (Xi'an, China); type: in vivo, patients
# Excerpt: Cure Cancer Worldwide in conjunction with several hospitals in China have been treating patients using a combination of insulin induced hypoglycemia in combination with standard chemotherapy treatments, generally given multiple times in a 3 week window but at 10% the standard dose. The safety of these treatments has been evaluated as well as the side effects.
# [4] = Hypoglycemic glucose clamp in SCID mouse xenograft model; type: in vivo
# Description: The glucose clamp technique has been well developed in animals models for the purpose diabetes research. (Ayala, et al., 2011) We have adapted this technique for use in a SCID mouse xenograft model. FIG. 3 gives a schematic of this procedure. Briefly, mice are injected subcutaneously in the hind flank with a standard amount of cancer cells sufficient to cause a tumor to grow. After a few weeks when tumor volume measures around 300-500 mm3, mice undergo jugular vein cannulation. Mice are fasted for 5 hours prior to treatment with chemotherapy drugs. Depending on the pharmacokinetics of the drug, drugs are either given before the start of the glucose clamp or during the clamp procedure to correspond to the maximum effectiveness of the drug during the “hypoglycemia therapeutic window”. Injection pumps containing insulin, glucose and washed erythrocytes from donor mouse blood are connected to a swivel mixer which is in turn connected to the jugular catheters. For the initiation of the hypoglycemic clump, a bolus injection of insulin is given to reduce initial blood glucose levels which typically take around 30 minutes to lower blood glucose. Then a steady state of insulin and glucose is given to maintain blood glucose levels between 30-50 mg/dL for two hours. In practice, blood glucose levels range from 22-51 mg/dl with an average around 34 mg/dL (1.9 mmol/L). […]
# [5] = tested on: human esophageal and colonic cancer cells; conditions: cited from earlier work
# [6] = tested on: MDA-MB-231 breast cancer cells; conditions: cells incubated with insulin; cited from earlier work
# breast cancer cells [7] = conditions: cells incubated with insulin; cited from earlier work
# breast cancer cells [8] = conditions: asynchronous population; 37% in controls; cited from earlier work
# [9] = insulin several hours before 5-FU vs 5-FU without insulin
molecule,measurement,setting,value
"O=CC[C@@H](O)[C@H](O)[C@H](O)CO [2DG, 2-deoxyglucose]",ECG effect,"[1]; Raez, et al., 2013",irregular Electrocardiograph (ECG) heart rhythms
same,main failure point in the clinic,[1]; clinical trials,induced hyperglycemia
CN(C)C(=N)N=C(N)N [metformin],pathological complete response (pCR) rate,breast cancer,24%
CN(Cc1cnc2nc(N)nc(N)c2n1)c1ccc(C(=O)N[C@@H](CCC(=O)O)C(=O)O)cc1 [methotrexate],lowering of methotrexate concentration for same percent cell killing,[2],10000 fold
insulin,Comas,[3]; 950 insulin injections,0 n
same,Deaths,[3]; 950 insulin injections,0 n
same,Time Interval of Hypoglycemia,[3]; 950 insulin injections,5-25 m
same,Hypoglycemia range,"[3]; insulin induced hypoglycemia with chemotherapy at 10% standard dose, initial blood glucose 3.86-7.95 mmol/l, 950 insulin injections",1.0 to 3.4 mmol/L
same,Conclusion,[3]; insulin-induced hypoglycemia safety profile,safe
same,time to lower blood glucose,[4]; bolus injection of insulin at initiation of clamp,around 30 minutes
same,"blood glucose levels, range in practice","[4]; steady state of insulin and glucose for two hours, target 30-50 mg/dL",22 to 51 mg/dL
same,apoptotic cell populations,[5]; [9],higher percentage of apoptotic cell populations
same,inhibition of cell growth,[5]; [9],greater inhibition of cell growth
same,percent of S-phase cells,[5]; treatment of insulin,increase in the percent of S-phase cells
same,increase in the uptake of elipticine,[6],2 fold
same,stimulation of uptake of methotrexate,breast cancer cells [7],50%
same,S-phase fraction,breast cancer cells [8],66%
